Earlier results in paper PMC9014845 (Clinical cancer research : an official journal of the …, 2019).

Assays:
[1] = system: patients with FGFR alterations; conditions: cited from earlier work
[2] = system: patients with FGFR alterations; conditions: 23 patients with FGFR alterations; cited from earlier work

CCN1CCN(c2ccc(Nc3cc(N(C)C(=O)Nc4c(Cl)c(OC)cc(OC)c4Cl)ncn3)cc2)CC1 [BGJ398]
Overall DCR [1]: 37%

COc1cc(OC)cc(N(CCNC(C)C)c2ccc3ncc(-c4cnn(C)c4)nc3c2)c1 [JNJ-42756493]
Patients with stable disease for >3 months [2]: 8 patients
